The values below come from patent US20030152599A1, “Composition for external use” (Shiseido Co., Ltd., priority 1999, published 2003).

One assay concerns skin. The assay is described as follows: Elasticity of the skin (Cutometer SEM474, Ur/Uf). The assay is classed as in vivo, human (middle-aged subjects). Particulars: 1% aqueous solution, inside of the forearm, three times per day for four days; Ur/Uf at 300 hPa. As to the method:
(§1) The effect of 2-amino-1,3-propanediol and 2-amino-1,3-propanediol hydrochloride on mitigation of decrease in turnover rate of the keratinous layer induced by aging was investigated in four middle-aged subjects. The turnover rate, water content of the keratinous layer, and elasticity of the skin were evaluated. 1% Aqueous solutions of 2-amino-1,3-propanediol and its hydrochloride were employed as the representative compositions of the present invention. A 1% aqueous solution of glycolic acid—which is one type of AHA—was employed as a comparative composition, and water (purified water) was employed as a reference.
(§2) A 1% phosphor solution (1 mL) in ethanol was added to an outer syringe (length: about 2 cm) of a 10-mL disposable injector, to bring the solution into contact with the skin for one minute (four portions on the inside of the forearm). From the next day, each sample including water was applied to the phosphor-contacted portions. Application was performed three times per day and continued for four consecutive days.
Elasticity of the skin was measured by use of Cutometer SEM474 (product of Courage+Khazaka). The elasticity was obtained from extension (Uf) and retraction (Ur) of the skin when a negative pressure of 300 hPa was repeatedly applied to the skin by use of a probe having a diameter of 2 mm. The ratio (Ur/Uf) was employed as an index of elasticity of the skin. The higher the ratio, the higher the elasticity of the skin.
(§3) The turnover rate, water content of keratinous layer and elasticity of the skin in case of 2-amino-2-methyl-1,3-propanediol and its hydrochloride were also investigated.

The next assay deals with desmoglein. The assay is described as follows: Evaluation for promotion of decomposition of desmoglein (keratinous layer sheet, anti-desmoglein immunoblot). The settings on record: applied to both sides of keratinous layer sheet, 37° C., humidity 75%, one week; versus glycolic acid positive control. Format: biochemical. As to the method:
To both sides of a sheet (1.5±0.2 mg) of the keratinous layer was applied 2-amino-1,3-propanediol, 2-amino-1,3-propanediol hydrochloride, or glycolic acid (5 μL for each side). Glycolic acid, which is one of AHA's, was used as a positive control. The sheet was sandwiched by stainless steel mesh sheets and allowed to stand at 37° C. with a humidity of 75% for one week. Subsequently, the sheet was transferred into a microtube, and an extracting liquid (100 μL) was added to the microtube. The mixture was maintained at 37° C. overnight to extract protein from the mixture. The extract was subjected to electrophoresis by use of […], and the gel was transferred to a PVDF membrane. An anti-desmoglein antibody and an alkaline-phosphatase-labeled anti-IgG sequentially reacted with the […], and the resultant gel was colored with alkaline phosphatase. The image of bands formed on the membrane was captured by an image-scanner, and was analyzed, to obtain the amount of desmoglein. The test was performed twice, and an average value of the amount was calculated. The average values of samples were compared.
The effect of 2-amino-2-methyl-1,3-propanediol and its hydrochloride was investigated in accordance with the same method.
(In general: Immunoblotting shows a protein as a band on a membrane.)

Assay [1] concerns keratinous layer. The assay is described as follows: Water content of the keratinous layer (electrical conductivity, Skicon-200). Particulars: 1% aqueous solution, inside of the forearm, three times per day for four days. The assay is classed as in vivo, human (middle-aged subjects). On the procedure:
as §1, §2
Water content of the keratinous layer was measured by use of an apparatus for measuring electrical conductivity (Skicon-200, product of IBS). The conductivity was employed as an index of water content. Thus, the higher the water content, the higher the electrical conductivity.
as §3

Assay [2] relates to keratinous layer. The assay is described as follows: Turnover rate of the keratinous layer (decrease in fluorescence from the skin surface). Particulars: 1% aqueous solution, inside of the forearm, three times per day for four days, measured on the fifth day. Format: in vivo, human (middle-aged subjects). As to the method:
as §1, §2
On the fifth day after the test was initiated, intensity of fluorescence from the skin surface was measured by use of a fluorescence-detector designed for this particular use. Decrease in fluorescence was employed as an index of the turnover rate of the keratinous layer. The larger the decrease in fluorescence, the greater the turnover rate.
as §3

On to `NC(CO)CO` [2-amino-1,3-propanediol], for which, in the assay on skin, the “elasticity of the skin” value was “improve”. Further, the “effect of promoting decomposition of desmoglein” value (shortened to “effect”) in the assay on desmoglein was “stronger effect of promoting decomposition of desmoglein than does glycolic acid”. In the assay on keratinous layer [1], the “water content of the keratinous layer” value is “improve water content of the keratinous layer”. In the assay with keratinous layer [2], the “mitigation of decrease in turnover rate of the keratinous layer induced by aging” value (“mitigation of decrease” below) was “mitigate decrease in turnover rate induced by aging”.
With `CC(N)(CO)CO` [2-amino-2-methyl-1,3-propanediol], the “elasticity of the skin” value in the assay on skin was “more strongly than does glycolic acid”. The “effect” value in the assay with desmoglein is “stronger effect of promoting decomposition of desmoglein than does glycolic acid”. Further, the “water content of the keratinous layer” value with keratinous layer [1] is “more strongly than does glycolic acid”. For the same compound, the “mitigation of decrease” value in the assay on keratinous layer [2] was “more strongly than does glycolic acid”.
As to `CC(N)(CO)CO.Cl` [2-amino-2-methyl-1,3-propanediol hydrochloride], in the assay with skin, the “elasticity of the skin” value is listed as “more strongly than does glycolic acid”. Besides, the “effect” value with desmoglein is “stronger effect of promoting decomposition of desmoglein than does glycolic acid”. In addition, the “water content of the keratinous layer” value with keratinous layer [1] is given as “more strongly than does glycolic acid”. The “mitigation of decrease” value in the assay with keratinous layer [2] is recorded as “more strongly than does glycolic acid”.
On to `Cl.NC(CO)CO` [2-amino-1,3-propanediol hydrochloride], for which the “elasticity of the skin” value with skin was “improve”. Besides, the “effect” value in the assay with desmoglein is given as “stronger effect of promoting decomposition of desmoglein than does glycolic acid”. In the assay with keratinous layer [1], the “water content of the keratinous layer” value is on record as “improve water content of the keratinous layer”. For the same compound, in the assay on keratinous layer [2], the “mitigation of decrease” value is recorded as “mitigate decrease in turnover rate induced by aging”.
